Patent US5710126A, “T cell epitopes of ryegrass pollen allergen” (ImmuLogic Pharmaceutical Corporation, priority 1995, dated 1998)

Test system: T cell lines from grass-allergic patients primed in vitro with affinity purified Lol p V
Experiment: T cell proliferation (tritiated thymidine uptake) of Lol p V-primed T cell lines restimulated with peptides or proteins
Type: cell-based, human
Details: for mean T cell stimulation index (S.I.): mean of positive responses (S.I. at least 2), FIGS. 4 and 5
Text: As discussed in Example 2, human T cell stimulating activity can be tested by culturing T cells obtained from an individual sensitive to Lol p V allergen, (i.e., an individual who has an IgE mediated immune response to Lol p V allergen) with a peptide derived from the allergen and determining whether proliferation of T cells occurs in response to the peptide as measured, e.g., by cellular uptake of tritiated thymidine. Stimulation indices for responses by T cells to peptides can be calculated as the maximum CPM in response to a peptide divided by the control CPM. A stimulation index (S.I.) equal to or greater than two times the background level is considered "positive". Positive results are used to calculate the mean stimulation index for each peptide for the group of patients tested. In FIGS. 4 and 5 the mean T cell stimulation index is indicated above the bar. Preferred peptides of this invention comprise at least one T cell epitope and have a mean T cell stimulation index of greater than or equal to 2.0. A peptide having a mean T cell stimulation index of greater than or equal to 2.0 in a significant number of ryegrass pollen sensitive patients tested is considered useful as a therapeutic agent. Preferred peptides have a mean T cell stimulation index of at least 2.5, more preferably at least 3.0, more preferably at least 3.5, more preferably at least 4.0, more preferably at least 5.0 and most preferably at least about 6. For example, peptides of the invention having a mean T cell stimulation index of at least 5, as indicated by data shown in FIGS. 4 and 5, include peptides LPIX-4 (SEQ ID NO:6), LPIX-5 (SEQ ID NO:7), LPIX-8 (SEQ ID NO:10) LPIX-17 (SEQ ID NO:19) and LPIX-19 (SEQ ID NO:21).
In addition, preferred peptides have a positivity index (P.I.) of at least about 60, more preferably about 100, more preferably at least about 200 and most preferably at least about 300. The positivity index for a peptide is determined by multiplying the mean T cell stimulation index by the percent of individuals, in a population of individuals sensitive to ryegrass pollen (e.g., preferably a population of at least 15 individuals,more preferably a population of at least 30 individuals or more), who have a T cell stimulation index to such peptide of at least 2.0. Thus, the positivity index represents both the strength of a T cell response to a peptide (S.I.) and the frequency of a T cell response to a peptide in a population of individuals sensitive to ryegrass pollen. In FIG. 4, the bar represents the positivity index and the percent of individuals tested who have a T cell stimulation index of at least 2.0 to that peptide are indicated in parenthesis above each bar (the mean T cell stimulation index is also indicated above each bar). […] Lol p V peptides having a positivity index of at least about 100 and a mean T cell stimulation index of at least about 4 include: LPIX-4 (SEQ ID NO:6), LPIX-5 (SEQ ID NO:7), and LPIX-17 (SEQ ID NO:19).
In FIG. 5, the bar represents the cumulative rank of the peptide response in the group of patients tested as described in Example 2. To determine the cumulative rank, the 5 peptides with the highest S.I. in each individual were determined and assigned a numerical rank in descending order, with 5 representing the strongest response. The ranks for each peptide were then summed for the entire group of patients tested to determine the cumulative rank for the peptide. Above each bar is the mean S.I. for each peptide and the percent of positive responses (in parenthesis) with an S.I. of at least 2 to the peptide in the group of patients tested.
This amount of priming antigen was determined to be optimal for the activation of T cells from most grass-allergic patients. Viable cells were purified by LSM centrifugation and cultured in complete medium, supplemented with 5 units recombinant human IL-2/ml and 5 units recombinant human IL-4/ml for up to 3 weeks until the desired cell number were achieved. […]

Substance	positivity index (P.I.; % of patients responding multiplied by mean S.I.) (19 patients, FIG. 4)	mean T cell stimulation index (S.I.) (19 patients)	also measured
LPIX-4: synthetic overlapping peptide derived from Lol p V, sequence shown in FIG. 2 (EQKLLEDVNAGFKAAVAAAA)	at least 100		
LPIX-5: synthetic overlapping peptide derived from Lol p V, sequence shown in FIG. 2 (GFKAAVAAAANAPPADKFKI)			percent of positive responses (patients with S.I. of at least 2.0) (group of 19 patients tested, FIG. 4): 26.3%
LPIX-8: synthetic overlapping peptide derived from Lol p V, sequence shown in FIG. 2 (GLLATSAAKAPGLIPKLDTA)		at least 5	
LPIX-17: synthetic overlapping peptide derived from Lol p V, sequence shown in FIG. 2 (ATAANAAPTNDKFTVFESAF)	at least 100		
LPIX-19: synthetic overlapping peptide derived from Lol p V, sequence shown in FIG. 2 (NKALNECTGGAYETYKFIPS)		at least 5	
LPIX-20: synthetic overlapping peptide derived from Lol p V, sequence shown in FIG. 2 (AYETYKFIPSLEAAVKQAYA)			ranked sum (cumulative rank of the peptide response) (19 patients, 5 highest S.I. per individual ranked and summed, FIG. 5): highest ranked sum
